Series [1] has as its target T1, Organic anion transporter 3 (Homo sapiens, UniProt Q8TCC7).
T1 sequence (Q8TCC7 whole entry): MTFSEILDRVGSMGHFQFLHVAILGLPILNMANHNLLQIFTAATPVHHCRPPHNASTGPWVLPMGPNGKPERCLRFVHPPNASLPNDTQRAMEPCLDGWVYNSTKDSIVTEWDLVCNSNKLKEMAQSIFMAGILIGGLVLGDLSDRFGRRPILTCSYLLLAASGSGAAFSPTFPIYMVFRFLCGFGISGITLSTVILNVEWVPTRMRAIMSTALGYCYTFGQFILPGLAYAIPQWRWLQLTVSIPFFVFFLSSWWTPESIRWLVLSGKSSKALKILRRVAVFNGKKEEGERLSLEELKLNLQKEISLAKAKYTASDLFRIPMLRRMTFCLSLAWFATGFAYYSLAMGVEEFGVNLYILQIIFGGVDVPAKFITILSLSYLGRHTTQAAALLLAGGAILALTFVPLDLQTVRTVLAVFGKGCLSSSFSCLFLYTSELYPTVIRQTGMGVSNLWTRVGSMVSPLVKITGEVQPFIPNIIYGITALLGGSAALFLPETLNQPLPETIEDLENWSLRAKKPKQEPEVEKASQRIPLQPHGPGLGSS
Put plainly: TP_TRANSPORTER: inhibition of E1S uptake (E1S: 0.05 uM, Guanidine: 5 uM) in Xenopus laevis oocytes. Type of series: functional, cell-based. To be noted: oocyte.

The target of series [2] is T1, Organic anion transporter 3. Put plainly: (§1) TP_TRANSPORTER: uptake in Xenopus laevis oocytes. It counts as functional, cell-based. The note with it: oocyte.
Series [3] shares this target. Put plainly: TP_TRANSPORTER: inhibition of E1S uptake (E1S: 0.05 uM, Ibuprofen: 5 uM) in Xenopus laevis oocytes. Type of series: functional, cell-based. The note with it: oocyte.
For series [4] the target is unchanged. Put plainly: TP_TRANSPORTER: inhibition of E1S uptake (E1S: 0.05 uM, Quinidine: 5 uM) in Xenopus laevis oocytes. The note with it: oocyte. Type of series: functional, cell-based.
Series [5] shares this target. The experiment in a line: TP_TRANSPORTER: inhibition of E1S uptake (E1S: 0.05 uM, Bumetanide: 5 uM) in Xenopus laevis oocytes. The note with it: oocyte. It counts as functional, cell-based.
Series [6] shares this target. Put plainly: TP_TRANSPORTER: inhibition of E1S uptake (E1S: 0.05 uM, Corticosterone: 5 uM) in Xenopus laevis oocytes. It counts as functional, cell-based. The note with it: oocyte.
The target is the same in series [7]. Put plainly: TP_TRANSPORTER: inhibition of E1S uptake (E1S: 0.05 uM, Glutarate: 5 uM) in Xenopus laevis oocytes. Type of series: functional, cell-based. To be noted: oocyte.
Series [8] has the same target. The experiment in a line: TP_TRANSPORTER: inhibition of E1S uptake (E1S: 0.05 uM, AZT: 5 uM) in Xenopus laevis oocytes. The note with it: oocyte. Type of series: functional, cell-based.
Series [9] has the same target. The experiment in a line: TP_TRANSPORTER: inhibition of E1S uptake (E1S: 0.05 uM, BSP: 5 uM) in Xenopus laevis oocytes. The note with it: oocyte. It counts as functional, cell-based.
Series [10] has the same target. The experiment in a line: TP_TRANSPORTER: inhibition of E1S uptake (E1S: 0.05 uM, PCG: 5 uM) in Xenopus laevis oocytes. Type of series: functional, cell-based. To be noted: oocyte.
The target is the same in series [11]. Put plainly: TP_TRANSPORTER: inhibition of E1S uptake (E1S: 0.05 uM, Ouabain: 5 uM) in Xenopus laevis oocytes. The note with it: oocyte. It counts as functional, cell-based.
The target is the same in series [12]. Put plainly: TP_TRANSPORTER: inhibition of E1S uptake (E1S: 0.05 uM, Probenecid: 5 uM) in Xenopus laevis oocytes. It counts as functional, cell-based. To be noted: oocyte.
Series [13] shares this target. Put plainly: TP_TRANSPORTER: inhibition of E1S uptake (E1S: 0.05 uM, DHEAS: 5 uM) in Xenopus laevis oocytes. It counts as functional, cell-based. To be noted: oocyte.
Series [14] has the same target. Put plainly: TP_TRANSPORTER: inhibition of E1S uptake (E1S: 0.05 uM, Indomethacin: 5 uM) in Xenopus laevis oocytes. Type of series: functional, cell-based. To be noted: oocyte.
Series [15] shares this target. The experiment in a line: TP_TRANSPORTER: inhibition of E1S uptake (E1S: 0.05 uM, Diclofenac: 5 uM) in Xenopus laevis oocytes. The note with it: oocyte. Type of series: functional, cell-based.
Substrate in series [16]: CN(Cc1cnc2nc(N)nc(N)c2n1)c1ccc(C(=O)N[C@@H](CCC(=O)O)C(=O)O)cc1
The description is as §1. Type of series: functional, cell-based, Oocyte.

Substrate in series [17]: C[C@]12CC[C@@H]3c4ccc(OS(=O)(=O)O)cc4CC[C@H]3[C@@H]1CCC2=O
The description is as §1. It counts as functional, cell-based, Oocyte.

Substrate in series [18]: Nc1ccc(C(=O)NCC(=O)O)cc1
The series is described as §1. Type of series: functional, cell-based, Oocyte.

Substrate in series [19]: CN/C(=N/CCSCc1nc[nH]c1C)NC#N
Put plainly: cells, lysate or membranes named.

Data on 23 molecules can be found in ChEMBL document CHEMBL2074134, “Identification and characterization of human organic anion transporter 3 expressing predominantly in the kidney” (Mol Pharmacol, 2001).

Take `N=C(N)N` [GUANIDINE]: in series [1], the Activity entry was “is not an inhibitor [-]”. On to `CC(C)Cc1ccc(C(C)C(=O)O)cc1` (centres undefined) [IBUPROFEN], for which the Activity entry in [2] was “is not a substrate [-]”; in series [3] it was “inhibitor [(at a rough estimate) 10 % of control]”. In the case of `C=C[C@H]1C[N@@]2CC[C@H]1C[C@@H]2[C@@H](O)c1ccnc2ccc(OC)cc12` [QUINIDINE], the Activity entry in series [4] was “inhibitor [(at a rough estimate) 55 % of control]”.

As to `CCCCNc1cc(C(=O)O)cc(S(N)(=O)=O)c1Oc1ccccc1` [BUMETANIDE], the Activity entry in series [5] is “inhibitor [(at a rough estimate) 10 % of control]”. For the molecule `Nc1nc2c(ncn2COCCO)c(=O)[nH]1` [ACYCLOVIR], the Activity result in series [2] was “is not a substrate [-]”. With `O=c1[nH]c(=O)c2[nH]c(=O)[nH]c2[nH]1` [URIC ACID], in series [2], the Activity entry was “substrate [+]”.

As for `C[C@]12C[C@H](O)[C@H]3[C@@H](CCC4=CC(=O)CC[C@@]43C)[C@@H]1CC[C@@H]2C(=O)CO` [CORTICOSTERONE], in [6], the Activity result is “inhibitor [(at a rough estimate) 30 % of control]”. In the case of `O=C(O)CCCC(=O)O` [GLUTARATE], the Activity result in [2] was “substrate [+]”; in [7], “inhibitor [(at a rough estimate) 35 % of control]”.

As for `Cc1cn([C@H]2C[C@H](N=[N+]=[N-])[C@@H](CO)O2)c(=O)[nH]c1=O` [ZIDOVUDINE], the Activity result in series [8] is “is not an inhibitor [-]”. Consider `CCCC(CCC)C(=O)O` [VALPROIC ACID], for which the Activity result in series [2] is “is not a substrate [-]”. Same read-out and setting: with `C[C@@H]1Cc2c(Cl)cc(C(=O)N[C@@H](Cc3ccccc3)C(=O)O)c(O)c2C(=O)O1` [3R14S-OCHRATOXIN A] the entry was “substrate [+]”. Consider `O=C1OC(c2ccc(O)c(S(=O)(=O)[O-])c2)(c2ccc(O)c(S(=O)(=O)[O-])c2)c2c(Br)c(Br)c(Br)c(Br)c21.[Na+].[Na+]` [SULFOBROMOPHTHALEIN SODIUM], for which, in series [9], the Activity entry is “inhibitor [(at a rough estimate) 55 % of control]”. On to `CC1(C)S[C@@H]2[C@H](NC(=O)Cc3ccccc3)C(=O)N2[C@H]1C(=O)O` [PENICILLIN G], for which the Activity result in [10] was “inhibitor [(at a rough estimate) 35 % of control]”. Regarding `O=C(O)CCC(=O)O` [SUCCINIC ACID], in series [2], the Activity entry was “is not a substrate [-]”. The same measure, in the same setting: with `O=C(O)c1ccccc1O` [SALICYLIC ACID] the entry was “substrate [+]”.

Regarding `C[C@@H]1O[C@@H](O[C@H]2C[C@@H](O)[C@]3(CO)[C@H]4[C@H](O)C[C@]5(C)[C@@H](C6=CC(=O)OC6)CC[C@]5(O)[C@@H]4CC[C@]3(O)C2)[C@H](O)[C@H](O)[C@H]1O` [OUABAIN], in series [11], the Activity entry is “is not an inhibitor [-]”.

For the molecule `CCCN(CCC)S(=O)(=O)c1ccc(C(=O)O)cc1` [PROBENECID], the Activity result in series [12] is “inhibitor [(at a rough estimate) 10 % of control]”.

Regarding `C[C@]12CC[C@@H]3c4ccc(O)cc4CC[C@H]3[C@@H]1CC[C@@H]2O[C@@H]1O[C@H](C(=O)O)[C@@H](O)[C@H](O)[C@H]1O` [ESTRADIOL 17B GLUCURONIDE], the Activity result in series [2] is “substrate [+]”. For `C[C@]12CC[C@H](OS(=O)(=O)O)CC1=CC[C@@H]1[C@@H]2CC[C@]2(C)C(=O)CC[C@@H]12` [PRASTERONE SULFURIC ACID], the Activity entry in [13] is “inhibitor [(at a rough estimate) 10 % of control]”; in series [2], “substrate [+]”. On to `O=C(O)[C@H]1O[C@@H](O)[C@H](O)[C@@H](O)[C@@H]1O` [GLUCURONATE], for which the Activity result in [2] was “is not a substrate [-]”.

Regarding `COc1ccc2c(c1)c(CC(=O)O)c(C)n2C(=O)c1ccc(Cl)cc1` [INDOMETHACIN], the Activity result in series [14] was “inhibitor [(at a rough estimate) 15 % of control]”. Consider `O=C(O)Cc1ccccc1Nc1c(Cl)cccc1Cl` [DICLOFENAC], for which, in series [15], the Activity result is “inhibitor [(at a rough estimate) 10 % of control]”.

B1: Organic anion transporter 3 (Homo sapiens) (protein)
chain: MTFSEILDRVGSMGHFQFLHVAILGLPILNMANHNLLQIFTAATPVHHCRPPHNASTGPWVLPMGPNGKPERCLRFVHPPNASLPNDTQRAMEPCLDGWVYNSTKDSIVTEWDLVCNSNKLKEMAQSIFMAGILIGGLVLGDLSDRFGRRPILTCSYLLLAASGSGAAFSPTFPIYMVFRFLCGFGISGITLSTVILNVEWVPTRMRAIMSTALGYCYTFGQFILPGLAYAIPQWRWLQLTVSIPFFVFFLSSWWTPESIRWLVLSGKSSKALKILRRVAVFNGKKEEGERLSLEELKLNLQKEISLAKAKYTASDLFRIPMLRRMTFCLSLAWFATGFAYYSLAMGVEEFGVNLYILQIIFGGVDVPAKFITILSLSYLGRHTTQAAALLLAGGAILALTFVPLDLQTVRTVLAVFGKGCLSSSFSCLFLYTSELYPTVIRQTGMGVSNLWTRVGSMVSPLVKITGEVQPFIPNIIYGITALLGGSAALFLPETLNQPLPETIEDLENWSLRAKKPKQEPEVEKASQRIPLQPHGPGLGSS
For orientation: Km means the substrate concentration at which the rate is half of its maximum. With B1, the Km was determined as 10.9 µM in series [16], 3.1 µM in series [17], 87.2 µM in [18] and 57.4 µM in [19].
